From patent publication US20120142685A1, “ORGANIC COMPOUNDS” (priority 2007, published 2012) come the findings set out here.

Where two headings read alike, the source gives them in different places.

The target of test [1] is T1, protein kinase D1 (PKD1) (Homo sapiens, UniProt Q15139).
T1 construct: This assay is performed with full length wild-type enzyme that is expressed and purified from Sf9 insect cells; made in house; host or cells: Sf9 insect cells
T1 sequence (Q15139 1-912): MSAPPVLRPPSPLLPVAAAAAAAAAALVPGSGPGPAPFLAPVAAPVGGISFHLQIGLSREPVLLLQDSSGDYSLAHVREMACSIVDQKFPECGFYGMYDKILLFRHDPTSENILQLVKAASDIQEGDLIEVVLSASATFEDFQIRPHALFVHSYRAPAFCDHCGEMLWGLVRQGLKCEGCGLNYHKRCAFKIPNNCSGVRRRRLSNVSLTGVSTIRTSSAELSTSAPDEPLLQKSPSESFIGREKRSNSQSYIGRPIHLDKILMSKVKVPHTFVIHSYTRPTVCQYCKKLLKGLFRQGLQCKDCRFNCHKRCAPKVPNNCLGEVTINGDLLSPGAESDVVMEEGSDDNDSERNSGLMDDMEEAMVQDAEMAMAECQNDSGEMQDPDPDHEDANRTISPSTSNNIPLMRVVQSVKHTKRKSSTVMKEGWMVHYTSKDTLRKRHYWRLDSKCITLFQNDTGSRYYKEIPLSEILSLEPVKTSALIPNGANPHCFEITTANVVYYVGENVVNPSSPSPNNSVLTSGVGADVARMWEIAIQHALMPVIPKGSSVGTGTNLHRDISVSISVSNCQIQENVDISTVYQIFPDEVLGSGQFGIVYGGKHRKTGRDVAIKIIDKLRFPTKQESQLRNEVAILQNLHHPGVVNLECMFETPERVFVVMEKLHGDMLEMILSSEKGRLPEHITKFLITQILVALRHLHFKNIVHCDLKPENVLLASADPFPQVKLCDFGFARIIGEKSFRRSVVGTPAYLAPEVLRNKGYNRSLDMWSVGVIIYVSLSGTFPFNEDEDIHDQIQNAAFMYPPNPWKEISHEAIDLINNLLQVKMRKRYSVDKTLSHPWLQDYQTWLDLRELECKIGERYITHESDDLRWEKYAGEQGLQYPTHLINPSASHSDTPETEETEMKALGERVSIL
Nature of the test: PKD1 TR-FRET (LANCE) kinase assay. It counts as biochemical. To be noted: full length wild-type enzyme, 20 μM ATP; read-out: Inhibitory Activity PKD1. An excerpt: The assay to measure protein kinase D1 (PKD1) activity is a time-resolved fluorescence resonance transfer (TR-FRET) assay using PerkinElmer's LANCE™ technology. In this case, a biotinylated syntide-2 peptide is used as the substrate in this reaction. Phosphorylation of the syntide-2 substrate is detected by a specific antibody that recognizes the phosphorylated peptide. A second fluorophore, APC, is conjugated to streptavidin that binds the biotinylated syntide-2 peptide. For detection, the europium fluorophore can be excited by 340 nM light which then emits at 615 nM. Therefore, when the europium labeled secondary antibody binds on the phosphorylated peptide, it is brought into close contact with the APC and excites this fluorophore. The APC emission is at 665 nm and the 665 nM:615 nM ratio is a readout of PKD1 activity.
This assay is performed with full length wild-type enzyme that is expressed and purified from Sf9 insect cells. The reaction buffer consists of 35 mM Tris-HCl pH7.5, 5 mM MgCl2, 0.02% Tween-20, 20 μM ATP, 1 mM DTT and 0.2 μg/mL PKD1 enzyme. The enzyme reaction is initiated by the addition of 2 μM syntide-2 peptide substrate and the reaction carried out for 50 minutes at room temperature. The reaction is stopped by a stop/detection buffer consisting of 50 mM EDTA, 0.18 mg/mL rabbit polyclonal anti-phospho syntide-2 antibody, 0.5 nM europium labeled anti-rabbit IgG and 10 nM streptavidin conjugated APC. After a one hour incubation with the stop/detection buffer, the reaction is read on an Envision 2100 Reader using a LANCE™ Eu/APC dual protocol. As described above, a 665 nM:615 nM ratio is determined to measure substrate phosphorylation and enzyme activity. Compounds are typically tested in an 11 point dose response fashion in triplicate for each concentration used. IC50 values are calculated using an Activity Base (IDBS) software program.

Test [2] relates to HDAC5 nuclear export. Nature of the test: HDAC5 nuclear export assay in neonatal rat ventricular myocytes (GFP-HDAC5, PGF2α stimulated). It counts as cell-based. The following applies: Ventricular myocyte, 2 h. Here is the method:
Compounds are evaluated in the HDAC5 nuclear […] assay, a 384-well plate-based assay that enables high throughput screening (HTS) to identify small molecules that block agonist-dependent nuclear export of HDAC5. This assay employs the Cellomics High Content Imaging platform (Giuliano & Taylor 1998) and adenovirus encoding green fluorescent protein (GFP) tagged HDAC5. Neonatal rat ventricular myocytes (NRVMs) are infected with GFP-HDAC5 encoding virus and plated on gelatin-coated 384-well dishes. Cells are exposed to compound and stimulated with an prostaglandin (PGF2α), which is a potent stimulus for HDAC5 nuclear export. Following two hours of stimulation, cells are fixed and GFP-HDAC5 localization quantified using the Cellomics system, which provides a read-out of relative fluorescence intensity in the cytoplasmic versus nuclear compartment.

[3] abbreviates: read-out: Inhibitory Activity HDAC (nM).
Setting [4] is: NRVMs, GFP-HDAC5, PGF2α stimulation two hours, read-out: Inhibitory Activity HDAC.

With `CN1CCN(c2nc(-c3ccnc(NC4CCCCC4)c3)cc3cnccc23)CC1` [Example 13, Cyclohexyl-{4-[1-(4-methylpiperazin-1-yl)-[2,6]naphthyridin-3-yl]pyridin-2-yl}amine], the IC50 stood at 2 nM in test [1] and 206 nM in test [2] (setting [3]).

For `CNc1cc(-c2cc3cnccc3c(NC)n2)ccn1` [Example 2, 1-Methylamino-3-(2-methylaminopyridin-4-yl)-[2,6]-naphthyridine], in test [1], the IC50 was 833 nM.

Take `NC(=O)C1CCN(c2nc(-c3ccnc(NC4CCCCC4)c3)cc3cnccc23)CC1` [Example 10, 1-[3-(2-Cyclohexylaminopyridin-4-yl)-[2,6]naphthyridin-1-yl]piperidine-4-carboxylic acid amide]: the IC50 in test [1] worked out at 83 nM; in test [2] (setting [4]), 203 nM.

`O=C(NC1CC1)C1CCN(c2nc(-c3ccnc(NC4CCOCC4)c3)cc3cnccc23)CC1` [Example 17, 1-{3-[2-(Tetrahydropyran-4-ylamino)pyridin-4-yl]-[2,6]naphthyridin-1-yl}piperidine-4-carboxylic acid cyclopropylamide]: the IC50 was 2 nM in test [1] and 88 nM in test [2] (setting [3]).

As to `CNc1cc(-c2cc3cnccc3c(NCCCO)n2)ccn1` [Example 1], in test [1], the IC50 was found to be 377 nM.

As for `COCCNc1cc(-c2cc3cnccc3c(N3CCNCC3)n2)ccn1` [Example 21, (2-Methoxyethyl)-[4-(1-piperazin-1-yl-[2,6]naphthyridin-3-yl)-pyridin-2-yl]amine], the IC50 in test [1] was 14 nM; in test [2] (setting [4]) it was 371 nM.

As to `CC(=O)N1CCN(c2nc(-c3ccnc(NC4CCCCC4)c3)cc3cnccc23)CC1` [Example 11, 1-{4-[3-(2-Cyclohexylaminopyridin-4-yl)-[2,6]naphthyridin-1-yl]piperazin-1-yl}ethanone], the IC50 in test [1] was 186 nM.

With `O=C(NCCO)C1CCN(c2nc(-c3ccnc(NC4CCOCC4)c3)cc3cnccc23)CC1` [Example 16, 1-{3-[2-(Tetrahydropyran-4-ylamino)pyridin-4-yl]-[2,6]naphthyridin-1-yl}piperidine-4-carboxylic acid (2-hydroxyethyl)amide], the IC50 in test [1] was 2 nM; in test [2] (setting [4]), 60 nM.

Take `OCCNc1nc(-c2ccnc(NC3CCCCC3)c2)cc2cnccc12` [Example 5, 2-[3-(2-Cyclohexylaminopyridin-4-yl)-[2,6]naphthyridin-1-ylamino]ethanol]: in test [1], the IC50 came out at 382 nM.

For the compound `CC(C)Nc1cc(-c2cc3cnccc3c(NCCO)n2)ccn1` [Example 6, 2-[3-(2-Isopropylaminopyridin-4-yl)-[2,6]naphthyridin-1-ylamino]ethanol], the IC50 in test [1] amounted to 156 nM.

In the case of `c1cc2c(NC3CCCNC3)nc(-c3ccnc(NC4CCCCC4)c3)cc2cn1` (centres unmarked) [Example 15, [3-(2-Cyclohexylaminopyridin-4-yl)-[2,6]naphthyridin-1-yl]piperidin-3-ylamine], the figures for the IC50 in test [1] and in test [2] (setting [3]) were 14 nM and 605 nM, respectively.

With `c1cc2c(N3CCNCC3)nc(-c3ccnc(NC4CCCCC4)c3)cc2cn1` [Example 3, Cyclohexyl-[4-(1-piperazin-1-yl-[2,6]naphthyridin-3-yl)pyridin-2-yl]amine], the IC50 amounted to 0.6 nM in test [1] and 32 nM in test [2] (setting [4]).

For `c1ccc(Nc2cc(-c3cc4cnccc4c(N4CCNCC4)n3)ccn2)cc1` [Example 4, Phenyl-[4-(1-piperazin-1-yl-[2,6]naphthyridin-3-yl)pyridin-2-yl]amine], the IC50 in test [1] turned out to be 11 nM; in test [2] (setting [3]), 2 nM.

Take `COc1cccc(Nc2cc(-c3cc4cnccc4c(NCCO)n3)ccn2)c1` [Example 7]: the IC50 turned out to be 55 nM in test [1] and 86 nM in test [2] (setting [4]).

As for `CN(C)CCNc1nc(-c2ccnc(NC3CCCCC3)c2)cc2cnccc12` [Example 8, N-[3-(2-Cyclohexylaminopyridin-4-yl)-[2,6]naphthyridin-1-yl]-N′,N′-dimethylethane-1,2-diamine], the IC50 in test [1] was 55 nM.

With `CN(C)CCNc1nc(-c2ccnc(Nc3ccccc3)c2)cc2cnccc12` [Example 9, N,N-Dimethyl-N′-[3-(2-phenylaminopyridin-4-yl)-[2,6]naphthyridin-1-yl]-ethane-1,2-diamine], the IC50 in test [1] is 41 nM; in test [2] (setting [4]), 756 nM.

`Cn1ccc(Nc2cc(-c3cc4cnccc4c(N4CCC5(CCNC5=O)CC4)n3)ccn2)n1` [Example 20, 8-{3-[2-(1-Methyl-1H-pyrazol-3-ylamino)pyridin-4-yl]-[2,6]naphthyridin-1-yl}-2,8-diaza-spiro[4.5]decan-1-one]: the values for the IC50 in test [1] and in test [2] (setting [4]) were 17 nM and 361 nM, respectively.

`Cn1ccc(Nc2cc(-c3cc4cnccc4c(N4CCC(C(N)=O)CC4)n3)ccn2)n1` [Example 19, 1-{3-[2-(1-Methyl-1H-pyrazol-3-ylamino)pyridin-4-yl]-[2,6]naphthyridin-1-yl}piperidine-4-carboxylic acid amide]: the IC50 in test [1] came to 0.4 nM; in test [2] (setting [4]), 12 nM.

As for `c1cc2c(NC3CCNC3)nc(-c3ccnc(NC4CCCCC4)c3)cc2cn1` (centres unmarked) [Example 14, [3-(2-Cyclohexylaminopyridin-4-yl)-[2,6]naphthyridin-1-yl]pyrrolidin-3-ylamine], the IC50 in test [1] amounted to 1 nM; in test [2] (setting [4]) it was 36 nM.

In the case of `CN(C)CC1CCN(c2nc(-c3ccnc(NC4CCCCC4)c3)cc3cnccc23)CC1` [Example 12, Cyclohexyl-{4-[1-(4-dimethylaminomethylpiperidin-1-yl)-[2,6]naphthyridin-3-yl]pyridin-2-yl}amine], the IC50 in test [1] was 207 nM.

Consider `CCNC(=O)N1CCN(c2nc(-c3ccnc(Nc4ccn(C)n4)c3)cc3cnccc23)CC1` [Example 18, 4-{3-[2-(1-Methyl-1H-pyrazol-3-ylamino)pyridin-4-yl]-[2,6]naphthyridin-1-yl}piperazine-1-carboxylic acid ethylamide], for which the IC50 in test [1] was found to be 20 nM; in test [2] (setting [3]), 534 nM.
